For twelve molecules, GI50 and TGI results are on record in PubChem BioAssay (NCI).

Among the test systems are HL-60(TB) leukemia; MDA-MB-435; UACC-257 melanoma; U251 CNS; NCI-H23 lung; NCI/ADR-RES ovarian; HOP-62 NSCLC; 786-0 renal; SW-620 colon; K-562 leukemia.
Assay in all cases: inhibition of tumour cell growth, NCI panel, 48 h

“And” between values parts separate entries of the source, which are not always exact repeats. Equal values may be shown once.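 Each compound was tested at five concentrations against cells in 96-well plates for 48 hours. The concentration for 50% growth inhibition is given as GI50. TGI: total growth inhibition.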

Take `COc1cc(-c2nn(C(=O)NS(=O)(=O)c3ccc(C)cc3)cc2-c2ccncc2)ccc1Cl`: the GI50 was 4.63 µM in the experiment with HL-60(TB) leukemia; 5.6 µM in the experiment with MDA-MB-435; 12.1 µM in the experiment with UACC-257 melanoma; 6.16 µM in the experiment on U251 CNS; 5.27 µM in the experiment with NCI-H23 lung; 3.93 µM with NCI/ADR-RES ovarian. Moreover, the GI50 with HOP-62 NSCLC is 2.9 µM; in the experiment on 786-0 renal it was 3.47 µM; with SW-620 colon it was 20.4 µM. The TGI in the experiment with HL-60(TB) leukemia was 24.9 µM; with MDA-MB-435, 25.3 µM; in the experiment with UACC-257 melanoma, 60.2 µM; in the experiment with U251 CNS it was 28.5 µM; with NCI-H23 lung it was 28.9 µM; in the experiment on NCI/ADR-RES ovarian it was 80.6 µM. Also, the TGI was 10.8 µM with HOP-62 NSCLC, 17.7 µM with 786-0 renal and > 100 µM in the experiment on SW-620 colon.
On to `Oc1ccc(Br)cc1/C=N/NC(=S)NC12CC3CC(CC(C3)C1)C2`, for which the GI50 with HL-60(TB) leukemia is 2.52 µM; with MDA-MB-435, 1.98 µM; in the experiment on UACC-257 melanoma, 2.11 µM; in the experiment on U251 CNS, 1.32 µM; with K-562 leukemia, 1.87 µM; in the experiment with NCI/ADR-RES ovarian it was 2.71 µM. Further, the GI50 with HOP-62 NSCLC is 1.52 µM; in the experiment on 786-0 renal, 2.32 µM; in the experiment on SW-620 colon it was 1.74 µM. Also, the TGI stood at 6.5 µM in the experiment on HL-60(TB) leukemia; 5.45 µM in the experiment on MDA-MB-435; 6.96 µM with UACC-257 melanoma; 2.71 µM in the experiment on U251 CNS; 5.3 µM in the experiment on K-562 leukemia; 7.89 µM with NCI/ADR-RES ovarian. Moreover, the TGI in the experiment on HOP-62 NSCLC was found to be 3.32 µM; in the experiment on 786-0 renal, 5.05 µM; with SW-620 colon it was 3.47 µM.
As to `COc1ccc(OC)c(-c2cc(-c3ccccc3)nn2-c2ccc(S(N)(=O)=O)cc2)c1`, the GI50 was 23.6 µM in the experiment on HL-60(TB) leukemia; 6.73 µM in the experiment with MDA-MB-435; 15.2 µM in the experiment on UACC-257 melanoma; 15.8 µM in the experiment with NCI-H23 lung; 2.68 µM with K-562 leukemia; 16.2 µM in the experiment on NCI/ADR-RES ovarian. Besides, the values for the GI50 in the experiment with 786-0 renal and in the experiment with SW-620 colon were 11.9 µM and 12.7 µM, respectively. Moreover, the TGI in the experiment on HL-60(TB) leukemia is > 100 µM; in the experiment with MDA-MB-435 it was 24.8 µM; in the experiment on UACC-257 melanoma, 31.6 µM; in the experiment on NCI-H23 lung, 30.2 µM; in the experiment on K-562 leukemia, 6.38 µM; in the experiment with NCI/ADR-RES ovarian it was 31.8 µM. Further, the figures for the TGI in the experiment on 786-0 renal and in the experiment on SW-620 colon were 24.6 µM and 33.4 µM, respectively.
`Cc1ccc(S(=O)(=O)NC(CCC(=O)Nc2ccccc2)C(=O)Nc2ccccc2)cc1` (stereo not drawn): the GI50 in the experiment with HL-60(TB) leukemia is 0.55 µM; in the experiment on MDA-MB-435, 0.437 µM; with UACC-257 melanoma, 0.464 µM; with U251 CNS, 0.326 µM; with NCI/ADR-RES ovarian it was 0.475 µM; in the experiment on 786-0 renal, 0.491 µM. In the experiment with SW-620 colon, the GI50 was 0.719 µM. Also, the TGI in the experiment on HL-60(TB) leukemia was 3.08 µM; with MDA-MB-435, 2.06 µM; with UACC-257 melanoma, 2.36 µM; with U251 CNS, 1.49 µM; with NCI/ADR-RES ovarian, 2.19 µM; in the experiment with 786-0 renal it was 2.04 µM. Further, the TGI in the experiment with SW-620 colon turned out to be 2.93 µM.
Take `CCN(CC)CCCCCOc1cc(O)c2c(=O)cc(-c3ccccc3)oc2c1`: the GI50 in the experiment on HL-60(TB) leukemia is 2.67 µM; in the experiment on MDA-MB-435 it was 3.18 µM; with UACC-257 melanoma it was 1.81 µM; with U251 CNS, 3.16 µM; in the experiment on K-562 leukemia, 1.86 µM; with NCI/ADR-RES ovarian, 3.06 µM. Also, the GI50 with HOP-62 NSCLC is 2.43 µM; in the experiment on 786-0 renal, 1.97 µM; in the experiment with SW-620 colon, 3.03 µM. For the same molecule, the TGI is 7.1 µM in the experiment on HL-60(TB) leukemia; 7.63 µM in the experiment on MDA-MB-435; 3.55 µM in the experiment with UACC-257 melanoma; 11.8 µM in the experiment on U251 CNS; 3.56 µM in the experiment on K-562 leukemia; 11.6 µM in the experiment with NCI/ADR-RES ovarian. Moreover, the TGI with HOP-62 NSCLC worked out at 9.71 µM; in the experiment with 786-0 renal it was 3.81 µM; with SW-620 colon, 10.3 µM.
For the molecule `CC(C)=CCC/C(C)=C/CC/C(=C/COP(=O)(OCc1ccc([N+](=O)[O-])o1)N(C)CCCCCl)CC=C(C)C` (stereo not drawn), the GI50 is 4.81 µM with HL-60(TB) leukemia; 4.98 µM in the experiment with MDA-MB-435; 6.57 µM in the experiment with UACC-257 melanoma; 2.78 µM in the experiment with U251 CNS; 9.45 µM in the experiment with K-562 leukemia; 6.11 µM with NCI/ADR-RES ovarian. The GI50 in the experiment with 786-0 renal is 5.7 µM; in the experiment with SW-620 colon it was 2.92 µM. The TGI in the experiment on HL-60(TB) leukemia is > 100 µM; with MDA-MB-435, 23.7 µM; in the experiment on UACC-257 melanoma it was 22.5 µM; in the experiment on U251 CNS, 11.8 µM; with K-562 leukemia, > 100 µM; in the experiment on NCI/ADR-RES ovarian, 21.3 µM. For the same molecule, the results for the TGI in the experiment with 786-0 renal and in the experiment with SW-620 colon were 19.2 µM and 6.98 µM, respectively.
With `C#CCOc1ccc2ncnc(Nc3ccc(NC(=O)CCl)cc3)c2c1`, the GI50 was 5.91 µM with HL-60(TB) leukemia; 2.67 µM in the experiment with MDA-MB-435; 15.5 µM in the experiment on UACC-257 melanoma; 2.08 µM in the experiment with U251 CNS; 3.85 µM in the experiment on NCI-H23 lung; 3.76 µM in the experiment with NCI/ADR-RES ovarian. In addition, the GI50 is 13.8 µM in the experiment with HOP-62 NSCLC, 4.36 µM in the experiment with 786-0 renal and 3.48 µM in the experiment with SW-620 colon. For the same molecule, the TGI in the experiment on HL-60(TB) leukemia is 25.2 µM; in the experiment on MDA-MB-435, > 100 µM; in the experiment with UACC-257 melanoma, 38.4 µM; in the experiment on U251 CNS, 5.99 µM; in the experiment on NCI-H23 lung it was 18.4 µM; with NCI/ADR-RES ovarian it was 36.4 µM. The TGI was found to be 37.1 µM in the experiment with HOP-62 NSCLC, 16 µM in the experiment on 786-0 renal and 13.3 µM with SW-620 colon.
On to `Oc1ccc(/C=N/Nc2nc3ccccc3s2)c(O)c1`, for which the GI50 is 3.08 µM with MDA-MB-435; 2.79 µM in the experiment on UACC-257 melanoma; 1.72 µM in the experiment on U251 CNS; 3.03 µM in the experiment on NCI-H23 lung; 2.59 µM in the experiment with K-562 leukemia; 1.22 µM in the experiment with NCI/ADR-RES ovarian. For the same molecule, the GI50 is 3.43 µM in the experiment on HOP-62 NSCLC, 3.68 µM in the experiment on 786-0 renal and 3.47 µM in the experiment with SW-620 colon. Besides, the TGI in the experiment on MDA-MB-435 is > 100 µM; in the experiment on UACC-257 melanoma it was 14.2 µM; in the experiment on U251 CNS, > 100 µM; in the experiment on NCI-H23 lung it was > 100 µM; in the experiment on K-562 leukemia, > 100 µM; in the experiment with NCI/ADR-RES ovarian, > 100 µM. Moreover, the TGI in the experiment with HOP-62 NSCLC was > 100 µM; in the experiment on 786-0 renal, 53.8 µM; in the experiment with SW-620 colon, > 100 µM.
For the molecule `CC(C)c1cc(CNc2nc(Nc3cc(C4CC4)[nH]n3)cc(N3CCN(C)CC3)n2)on1`, the GI50 in the experiment on HL-60(TB) leukemia was 0.359 µM and 0.087 µM; in the experiment with U251 CNS it was 3.49 µM and 0.408 µM; in the experiment on NCI-H23 lung, 1.54 µM and 0.173 µM; in the experiment on NCI/ADR-RES ovarian it was > 10 µM and 6.84 µM; with 786-0 renal it was 1.43 µM and 0.223 µM. In addition, the TGI with HL-60(TB) leukemia is > 10 µM and 1.6 µM; in the experiment with MDA-MB-435, > 10 µM and 5.54 µM; in the experiment on UACC-257 melanoma it was > 10 µM and 5.53 µM; in the experiment with U251 CNS it was > 10 µM and 10.3 µM; in the experiment with NCI-H23 lung, > 10 µM and 3.37 µM; in the experiment on K-562 leukemia, > 10 µM and 14.5 µM. Further, the TGI in the experiment with NCI/ADR-RES ovarian was > 10 µM and 25.4 µM; in the experiment with 786-0 renal, > 10 µM and 3.72 µM; with SW-620 colon, > 10 µM and 10.8 µM.
For the molecule `CCCCCCNC(=O)Oc1ccc(/C(=C(\C)c2ccccc2)c2ccc(OCCN3CCCCC3)cc2)cc1`, the GI50 in the experiment on MDA-MB-435 was 1.84 µM; with UACC-257 melanoma, 2.69 µM; in the experiment on U251 CNS, 1.81 µM; in the experiment with NCI-H23 lung it was 3.06 µM; in the experiment with K-562 leukemia it was 1.7 µM; in the experiment on NCI/ADR-RES ovarian it was 3.12 µM. Moreover, the values for the GI50 in the experiment with HOP-62 NSCLC, in the experiment on 786-0 renal and in the experiment with SW-620 colon were 3.22 µM, 1.69 µM and 2.16 µM, respectively. The TGI in the experiment on MDA-MB-435 was 4.01 µM; with UACC-257 melanoma, 9.16 µM; in the experiment with U251 CNS, 3.81 µM; in the experiment on NCI-H23 lung, 11.6 µM; in the experiment on K-562 leukemia it was 4.96 µM; in the experiment with NCI/ADR-RES ovarian, 12.7 µM. Further, the TGI in the experiment on HOP-62 NSCLC was 10.9 µM; in the experiment with 786-0 renal, 3.12 µM; in the experiment with SW-620 colon, 5.66 µM.
For the molecule `BrC(Br)(Br)c1cnc2ccccc2n1`, the GI50 with HL-60(TB) leukemia is 1.97 µM; with MDA-MB-435, 2.14 µM; in the experiment with UACC-257 melanoma, 2.02 µM; in the experiment with U251 CNS, 1.3 µM; in the experiment with NCI-H23 lung, 3.6 µM; with K-562 leukemia it was 1.12 µM. Further, the GI50 is 2.3 µM in the experiment on NCI/ADR-RES ovarian, 2.27 µM with HOP-62 NSCLC and 2.02 µM in the experiment on 786-0 renal. In addition, the TGI came out at 4.16 µM in the experiment with HL-60(TB) leukemia; 6.29 µM in the experiment on MDA-MB-435; 6.48 µM with UACC-257 melanoma; 3.17 µM in the experiment with U251 CNS; 17.1 µM with NCI-H23 lung; 3.55 µM in the experiment on K-562 leukemia. The TGI in the experiment on NCI/ADR-RES ovarian amounted to 7.36 µM; with HOP-62 NSCLC, 7.9 µM; with 786-0 renal, 5 µM.
With `O=C1/C(=C/c2ccc([N+](=O)[O-])s2)Oc2ccccc21`, the GI50 in the experiment with HL-60(TB) leukemia was 0.96 µM; in the experiment with MDA-MB-435 it was 1.3 µM; with UACC-257 melanoma it was 1.26 µM; in the experiment on U251 CNS, 0.561 µM; in the experiment on NCI-H23 lung, 1.31 µM; in the experiment on K-562 leukemia, 0.243 µM. The GI50 is 1.74 µM in the experiment on NCI/ADR-RES ovarian, 2.42 µM with 786-0 renal and 0.257 µM in the experiment with SW-620 colon. Also, the TGI in the experiment with MDA-MB-435 was found to be 3.17 µM; in the experiment with UACC-257 melanoma, 2.78 µM; in the experiment with U251 CNS, 1.82 µM; with NCI-H23 lung, 3.19 µM; in the experiment on K-562 leukemia it was 0.728 µM; with NCI/ADR-RES ovarian, 9.25 µM. The TGI turned out to be 6.29 µM in the experiment with 786-0 renal and 0.725 µM with SW-620 colon.
